Measured values as given in US20220183282A1, “Fatty Acid Derivatives For Improving The Effect Of Agrochemical Actives” (priority 2019, published 2022).

Tests used:
apple leaf cuticles [1] = test: Penetration of Milbemectin through isolated apple leaf cuticles in the presence of test substances; type: in vitro ADME; settings: for Mean penetration for Milbemectin after time: Milbemectin 0.03 g/L in spray liquid
Text: (§1) Surfactants can affect the absorption of (active) ingredients through membranes such as skin, films or the plant cuticle. As a “finite-dose” application, it is known for the single administration or application of a solution, cream, gel etc. to a membrane that the absorption of active ingredient can be influenced by some additives such as surfactants even after wetting.
(§2) The principle of the method has been published and described in detail e.g. in WO-A-2005/194844 or WO2017211572 A1). The leaf cuticles were enzymatically isolated in the manner described in the literature from apple leaves of orchard trees in a commercial stone fruit growing facility near Frankfurt am Main in 2017. The stomata-free cuticles were first dried under air and then installed into stainless steel diffusion cells. After application to the original upper side of the leaf and evaporation of the test liquid, i.e. of the spray liquids of the active ingredients with or without the inventive substances or comparative compositions, the diffusion cells were transferred into thermostated blocks and charged with aqueous liquid. The water used to make up the aqueous test liquids was local tap water (of known composition). At regular intervals, aliquot samples were taken and the proportion of active ingredient penetrated was determined by HPLC or alternatively by radio-chemical method where radio-labelled active ingredient was used as tracer to determine the concentration. During the experiment, the temperature in the system (block, diffusion cells, liquids, etc.) and the air humidity above the spray deposit on the cuticle were controlled. In the experiment, relative air humidity was constant throughout at 56% relative air humidity (air over supersaturated calcium nitrate) at a constant 10° C. or 25° C. The analytical determination by means of HPLC (1290 Infinity, Agilent) was effected thereafter with a Kinetex column 30×2, 1 mm, 2.6μ C18 100 A (Phenomenex), taking a 20 μL aliquot as injection volume at the specified times. In each case, the geometric mean values of the penetration for intact membranes at the mean measurement times are given.

apple leaf cuticles [2] = test: Penetration of lodosulfuron-methyl through isolated apple leaf cuticles in the presence of test substances; type: in vitro ADME; settings: for Mean penetration for lodosulfuron-methyl after time: lodosulfuron-methyl 0.1 g/L in spray liquid, 10° C./61% rel. air humidity
Text: as §1
as §2, with “In the experiment, relative air humidity was constant throughout at 56% relative air humidity (air over supersaturated calcium nitrate) at a constant 10° C. or 25° C.” left out

apple leaf cuticles [3] = test: Penetration of MCPA through isolated apple leaf cuticles in the presence of test substances; settings: for Mean penetration for MCPA after time: MCPA 1.5 g/L in spray liquid, 25° C./56% rel. air humidity
Text: as §1, §2

apple leaf cuticles [4] = test: Penetration of Imidacloprid through isolated apple leaf cuticles in the presence of test substances; settings: for Mean penetration for Imidacloprid after time: Imidacloprid 0.5 g/L in spray liquid
Text: as §1, §2

[5] = Dynamic surface tension, bubble pressure method (BP2100 tensiometer, Krüss); type: physicochemical
Procedure: Dynamic surface tension was determined via the bubble pressure method (BP2100 tensiometer, Krüss). Given a timespan of relevance for the spray application of agrochemicals in aqueous dilution (called the surface age in the bubble pressure method) of 200 milliseconds (ms), the value for dynamic surface tension in [mN/m] correlates with the adhesion on plants that are difficult to wet, such as barley (cereal). A value of 50 mN/m (at 20-21° C.) with respect to water (72.8 mN/m) results in an improvement in the adhesion from “zero adhesion” (0%) to about 50% (Baur P., Pontzen R.; 2007; Basic features of plant surface wettability and deposit formation and the impact of adjuvant; in R. E. Gaskin ed. Proceedings of the 8th International Symposium on Adjuvants for Agrochemicals; Publisher: International Society for Agrochemical Adjuvants (ISAA), Columbus, Ohio, USA).

apple leaf cuticles [6] = test: Penetration of Mesosulfuron-methyl through isolated apple leaf cuticles in the presence of test substances; type: in vitro ADME; settings: for Mean penetration for Mesosulfuron-methyl after time: Mesosulfuron-methyl 0.1 g/L in spray liquid, 10° C./61% rel. air humidity
Text: as §1
as §2, with “In the experiment, relative air humidity was constant throughout at 56% relative air humidity (air over supersaturated calcium nitrate) at a constant 10° C. or 25° C.” left out

apple leaf cuticles [7] = test: Penetration of Mesotrione through isolated apple leaf cuticles in the presence of test substances
Text: as §1
as §2, with “In each case, the geometric mean values of the penetration for intact membranes at the mean measurement times are given.” left out

CCCCCCCCC(=O)OCCOCCOCCOCCOCCOCCOC [A1, Pelargonic acid 6 EO ester methyl ether]
Mean penetration for Milbemectin after time (apple leaf cuticles [1]; test substance 1.5 g/L, 1 day): 4.3% | Mean penetration for Milbemectin after time (apple leaf cuticles [1]; test substance 1.5 g/L, 2 days): 4.2% | Mean penetration for Milbemectin after time (apple leaf cuticles [1]; test substance 3.0 g/L, 1 day): 4.7% | Mean penetration for Milbemectin after time (apple leaf cuticles [1]; test substance 3.0 g/L, 2 days): 5.4% | uptake of the agrochemical active (Milbemectin), in words (apple leaf cuticles [1]; summary of Table 9, compared to the commercial formulation): strongly increases the uptake | Mean penetration for lodosulfuron-methyl after time (apple leaf cuticles [2]; test substance 0.3 g/L, 1 day): 1.0% | Mean penetration for lodosulfuron-methyl after time (apple leaf cuticles [2]; test substance 0.3 g/L, 2 days): 1.5% | Mean penetration for lodosulfuron-methyl after time (apple leaf cuticles [2]; test substance 1.0 g/L, 1 day): 2.3% | Mean penetration for lodosulfuron-methyl after time (apple leaf cuticles [2]; test substance 1.0 g/L, 2 days): 3.3% | Mean penetration for lodosulfuron-methyl after time (apple leaf cuticles [2]; test substance 3.0 g/L, 1 day): 7.6% | Mean penetration for lodosulfuron-methyl after time (apple leaf cuticles [2]; test substance 3.0 g/L, 2 days): 8.8% | uptake of the active ingredient (lodosulfuron-methyl), in words (apple leaf cuticles [2]; summary of Table 6): strongly increases the uptake | Mean penetration for MCPA after time (apple leaf cuticles [3]; test substance 0.3 g/L, 0.5 day): 34.2% | Mean penetration for MCPA after time (apple leaf cuticles [3]; test substance 0.3 g/L, 1 day): 45.5% | Mean penetration for MCPA after time (apple leaf cuticles [3]; test substance 1.0 g/L, 0.5 day): 46.9% | Mean penetration for MCPA after time (apple leaf cuticles [3]; test substance 1.0 g/L, 1 day): 53.9% | uptake of the active ingredient (MCPA), in words (apple leaf cuticles [3]; summary of Table 3): strongly increases the uptake | Mean penetration for Imidacloprid after time (apple leaf cuticles [4]; test substance 0.3 g/L, 1 day): 2.8% | Mean penetration for Imidacloprid after time (apple leaf cuticles [4]; test substance 0.3 g/L, 4 days): 3.8% | Mean penetration for Imidacloprid after time (apple leaf cuticles [4]; test substance 1.0 g/L, 1 day): 31.7% | Mean penetration for Imidacloprid after time (apple leaf cuticles [4]; test substance 1.0 g/L, 4 days): 38.2% | uptake of the agrochemical active (Imidacloprid), in words (apple leaf cuticles [4]; summary of Table 8): strongly increases the uptake | Dynamic Surface tension ([5]; 0.3 g/L, 20 ms): 61.2 mN/m | Dynamic Surface tension ([5]; 0.3 g/L, 50 ms): 57.3 mN/m | Dynamic Surface tension ([5]; 0.3 g/L, 100 ms): 54.4 mN/m | Dynamic Surface tension ([5]; 0.3 g/L, 200 ms): 51.5 mN/m | Dynamic Surface tension ([5]; 1 g/L, 20 ms): 47.6 mN/m | Dynamic Surface tension ([5]; 1 g/L, 50 ms): 44.5 mN/m | Dynamic Surface tension ([5]; 1 g/L, 100 ms): 42.1 mN/m | Dynamic Surface tension ([5]; 1 g/L, 200 ms): 39.8 mN/m | Dynamic Surface tension ([5]; 3 g/L, 20 ms): 33.7 mN/m | Dynamic Surface tension ([5]; 3 g/L, 50 ms): 32.0 mN/m | Dynamic Surface tension ([5]; 3 g/L, 100 ms): 30.8 mN/m | Dynamic Surface tension ([5]; 3 g/L, 200 ms): 29.5 mN/m | Dynamic Surface tension ([5]; 10 g/L, 20 ms): 30.2 mN/m | Dynamic Surface tension ([5]; 10 g/L, 50 ms): 29.3 mN/m | Dynamic Surface tension ([5]; 10 g/L, 100 ms): 28.6 mN/m | Dynamic Surface tension ([5]; 10 g/L, 200 ms): 27.9 mN/m | Mean penetration for Mesosulfuron-methyl after time (apple leaf cuticles [6]; test substance 1.0 g/L, 1 day): 1.9% | Mean penetration for Mesosulfuron-methyl after time (apple leaf cuticles [6]; test substance 1.0 g/L, 2 days): 3.6% | Mean penetration for Mesosulfuron-methyl after time (apple leaf cuticles [6]; test substance 3.0 g/L, 1 day): 4.2% | Mean penetration for Mesosulfuron-methyl after time (apple leaf cuticles [6]; test substance 3.0 g/L, 2 days): 5.2% | Mean penetration for Mesosulfuron-methyl after time (apple leaf cuticles [6]; test substance 10 g/L, 1 day): 9.2% | Mean penetration for Mesosulfuron-methyl after time (apple leaf cuticles [6]; test substance 10 g/L, 2 days): 10.9% | uptake of the active ingredient (Mesosulfuron-methyl), in words (apple leaf cuticles [6]; summary of Table 5): strongly increases the uptake | uptake of the active ingredient (Mesotrione), in words (apple leaf cuticles [7]): increases the uptake
